{"source": "ChEMBL document CHEMBL1148916", "about": "“Additional cytotoxic sterols and saponins from the starfish certonardoa semiregularis” (2004)", "format_in_all_cases": "functional", "conditions_in_all_cases": "read-out: ED50 (the source's name)", "key": {"SK-MEL-2": {"tested_on": "SK-MEL-2", "test": "Cytotoxicity against human SK-MEL-2 cells"}, "XF498": {"tested_on": "XF498", "test": "Cytotoxicity against human XF498 cells"}, "HCT-15": {"tested_on": "HCT-15", "test": "Cytotoxicity against human HCT15 cells"}, "A549": {"tested_on": "A549", "test": "Cytotoxicity against human A549 cells"}, "SK-OV-3": {"tested_on": "SK-OV-3", "test": "Cytotoxicity against human SKOV3 cells"}}}
{"compound": "CC(C)[C@@H](O)CC[C@@H](C)[C@H]1CC(=O)C2=C3C[C@H](O)[C@H]4[C@@H](O)[C@@H](O)CC[C@]4(C)[C@H]3CC[C@@]21C", "note": "[CERTONARDOSTEROL Q7]", "values": [{"measurement": "EC50", "setting": "SK-MEL-2", "result": 4.66, "unit": "µg/mL"}, {"measurement": "EC50", "setting": "XF498", "result": 3.8, "unit": "µg/mL"}, {"measurement": "EC50", "setting": "HCT-15", "result": 7.1, "unit": "µg/mL"}, {"measurement": "EC50", "setting": "A549", "result": 4.58, "unit": "µg/mL"}, {"measurement": "EC50", "setting": "SK-OV-3", "result": 6.65, "unit": "µg/mL"}]}
{"compound": "C=C(CC[C@@H](C)[C@H]1CC(=O)C2=C3C[C@H](O)[C@H]4[C@@H](O)[C@@H](O)CC[C@]4(C)[C@H]3CC[C@@]21C)[C@H](C)CO", "note": "[CERTONARDOSTEROL Q5]", "values": [{"measurement": "EC50", "setting": "SK-MEL-2", "result": "> 30", "unit": "µg/mL"}, {"measurement": "EC50", "setting": "XF498", "result": "> 30", "unit": "µg/mL"}, {"measurement": "EC50", "setting": "HCT-15", "result": "> 30", "unit": "µg/mL"}, {"measurement": "EC50", "setting": "A549", "result": "> 30", "unit": "µg/mL"}, {"measurement": "EC50", "setting": "SK-OV-3", "result": "> 30", "unit": "µg/mL"}]}
{"compound": "CC(C)[C@@H](O)CC[C@@H](C)[C@H]1CC(=O)[C@@H]2[C@]1(C)CC[C@@H]1[C@@]3(C)CC[C@H](O)[C@H](O)[C@@H]3[C@@H](O)C[C@]12O", "note": "[CERTONARDOSTEROL Q2]", "values": [{"measurement": "EC50", "setting": "SK-MEL-2", "result": 4.2, "unit": "µg/mL"}, {"measurement": "EC50", "setting": "XF498", "result": 4.1, "unit": "µg/mL"}, {"measurement": "EC50", "setting": "HCT-15", "result": 5.82, "unit": "µg/mL"}, {"measurement": "EC50", "setting": "A549", "result": 6.94, "unit": "µg/mL"}, {"measurement": "EC50", "setting": "SK-OV-3", "result": 6.85, "unit": "µg/mL"}]}
{"compound": "CC(/C=C/[C@@H](C)[C@H]1C[C@@H](O)[C@@H]2[C@]1(C)CC[C@@H]1[C@@]3(C)CC[C@H](O)[C@H](O)[C@@H]3[C@@H](O)C[C@]12O)CO", "note": "(stereo not given in full)", "values": [{"measurement": "EC50", "setting": "SK-MEL-2", "result": "> 30", "unit": "µg/mL"}, {"measurement": "EC50", "setting": "XF498", "result": "> 30", "unit": "µg/mL"}, {"measurement": "EC50", "setting": "HCT-15", "result": "> 30", "unit": "µg/mL"}, {"measurement": "EC50", "setting": "A549", "result": "> 30", "unit": "µg/mL"}, {"measurement": "EC50", "setting": "SK-OV-3", "result": "> 30", "unit": "µg/mL"}]}
{"compound": "CC(C)[C@H](CC[C@@H](C)[C@H]1C[C@@H](O)[C@H]2[C@@H]3C[C@H](O)[C@H]4[C@@H](O)[C@@H](O)CC[C@]4(C)[C@H]3CC[C@@]21C)O[C@@H]1O[C@H](CO)[C@H](O)[C@H]1O", "note": "[CERTONARDOSIDE H4]", "values": [{"measurement": "EC50", "setting": "SK-MEL-2", "result": 8.3, "unit": "µg/mL"}, {"measurement": "EC50", "setting": "XF498", "result": "> 30", "unit": "µg/mL"}, {"measurement": "EC50", "setting": "HCT-15", "result": "> 30", "unit": "µg/mL"}, {"measurement": "EC50", "setting": "A549", "result": "> 30", "unit": "µg/mL"}, {"measurement": "EC50", "setting": "SK-OV-3", "result": "> 30", "unit": "µg/mL"}]}
{"compound": "C[C@H](CO)CCC[C@@H](C)[C@H]1C[C@@H](O)[C@@H]2[C@]1(C)CC[C@@H]1[C@@]3(C)CC[C@H](O)[C@H](O)[C@@H]3[C@@H](O)C[C@]12O", "note": "[CERTONARDOSTEROL A3]", "values": [{"measurement": "EC50", "setting": "SK-MEL-2", "result": 5.24, "unit": "µg/mL"}, {"measurement": "EC50", "setting": "XF498", "result": 18.6, "unit": "µg/mL"}, {"measurement": "EC50", "setting": "HCT-15", "result": 20.3, "unit": "µg/mL"}, {"measurement": "EC50", "setting": "A549", "result": 11.7, "unit": "µg/mL"}, {"measurement": "EC50", "setting": "SK-OV-3", "result": 16.2, "unit": "µg/mL"}]}
{"compound": "COc1cccc2c1C(=O)c1c(O)c3c(c(O)c1C2=O)C[C@@](O)(C(=O)CO)C[C@@H]3O[C@H]1C[C@H](N)[C@H](O)[C@H](C)O1", "note": "[DOXORUBICIN]", "values": [{"measurement": "EC50", "setting": "SK-MEL-2", "result": 0.05, "unit": "µg/mL"}, {"measurement": "EC50", "setting": "XF498", "result": 0.12, "unit": "µg/mL"}, {"measurement": "EC50", "setting": "HCT-15", "result": 0.18, "unit": "µg/mL"}, {"measurement": "EC50", "setting": "A549", "result": 0.04, "unit": "µg/mL"}, {"measurement": "EC50", "setting": "SK-OV-3", "result": 0.12, "unit": "µg/mL"}]}
{"compound": "CC(C)[C@@H](O)CC[C@@H](C)[C@H]1CC(=O)C2=C3C[C@H](O)[C@H]4C[C@@H](O)CC[C@]4(C)[C@H]3CC[C@@]21C", "note": "[CERTONARDOSTEROL Q6]", "values": [{"measurement": "EC50", "setting": "SK-MEL-2", "result": 0.17, "unit": "µg/mL"}, {"measurement": "EC50", "setting": "XF498", "result": 0.12, "unit": "µg/mL"}, {"measurement": "EC50", "setting": "HCT-15", "result": 0.48, "unit": "µg/mL"}, {"measurement": "EC50", "setting": "A549", "result": 0.43, "unit": "µg/mL"}, {"measurement": "EC50", "setting": "SK-OV-3", "result": 0.22, "unit": "µg/mL"}]}
{"compound": "C=C(CC[C@@H](C)[C@H]1CC(=O)[C@@H]2[C@]1(C)CC[C@@H]1[C@@]3(C)CC[C@H](O)[C@H](O)[C@@H]3[C@@H](O)C[C@]12O)[C@H](C)CO", "note": "[CERTONARDOSTEROL Q1]", "values": [{"measurement": "EC50", "setting": "SK-MEL-2", "result": 5.57, "unit": "µg/mL"}, {"measurement": "EC50", "setting": "XF498", "result": 4.95, "unit": "µg/mL"}, {"measurement": "EC50", "setting": "HCT-15", "result": 11.6, "unit": "µg/mL"}, {"measurement": "EC50", "setting": "A549", "result": 12, "unit": "µg/mL"}, {"measurement": "EC50", "setting": "SK-OV-3", "result": 10.9, "unit": "µg/mL"}]}
{"compound": "C[C@H](CO)CCC[C@@H](C)[C@H]1CC(=O)C2=C3C[C@H](O)[C@H]4[C@@H](O)[C@@H](O)CC[C@]4(C)[C@H]3CC[C@@]21C", "note": "[CERTONARDOSTEROL Q4]", "values": [{"measurement": "EC50", "setting": "SK-MEL-2", "result": 3.4, "unit": "µg/mL"}, {"measurement": "EC50", "setting": "XF498", "result": 2.9, "unit": "µg/mL"}, {"measurement": "EC50", "setting": "HCT-15", "result": 4.2, "unit": "µg/mL"}, {"measurement": "EC50", "setting": "A549", "result": 3.8, "unit": "µg/mL"}, {"measurement": "EC50", "setting": "SK-OV-3", "result": 4.1, "unit": "µg/mL"}]}
{"compound": "CC(/C=C/[C@@H](C)[C@H]1C[C@@H](O)[C@@H]2[C@]1(C)CC[C@@H]1[C@@]3(C)CC[C@H](O)[C@H](O)[C@@H]3[C@@H](O)C[C@]12O)[C@@H](C)O", "note": "(stereo not given in full) [CERTONARDOSTEROL A4]", "values": [{"measurement": "EC50", "setting": "SK-MEL-2", "result": 5.7, "unit": "µg/mL"}, {"measurement": "EC50", "setting": "XF498", "result": 28.4, "unit": "µg/mL"}, {"measurement": "EC50", "setting": "HCT-15", "result": 19.3, "unit": "µg/mL"}, {"measurement": "EC50", "setting": "A549", "result": 17, "unit": "µg/mL"}, {"measurement": "EC50", "setting": "SK-OV-3", "result": 16.4, "unit": "µg/mL"}]}
{"compound": "CC(C)[C@@H](O)CC[C@@H](C)[C@H]1CC(=O)[C@@H]2[C@]1(C)CC[C@@H]1[C@@]3(C)CC[C@H](O)C[C@@H]3[C@@H](O)C[C@]12O", "note": "[CERTONARDOSTEROL Q3]", "values": [{"measurement": "EC50", "setting": "SK-MEL-2", "result": 7.3, "unit": "µg/mL"}, {"measurement": "EC50", "setting": "XF498", "result": 12.6, "unit": "µg/mL"}, {"measurement": "EC50", "setting": "HCT-15", "result": 13.6, "unit": "µg/mL"}, {"measurement": "EC50", "setting": "A549", "result": 5.43, "unit": "µg/mL"}, {"measurement": "EC50", "setting": "SK-OV-3", "result": 12.3, "unit": "µg/mL"}]}
{"compound": "CO[C@H]1[C@H](O[C@H]2[C@H](O[C@@H](CC[C@@H](C)[C@H]3C[C@@H](O)[C@H]4[C@@H]5C[C@H](O)[C@H]6[C@@H](O)[C@@H](O)CC[C@]6(C)[C@H]5CC[C@@]43C)C(C)C)O[C@H](CO)[C@@H]2O)OC[C@@H](O)[C@@H]1O", "note": "[CERTONARDOSIDE H3]", "values": [{"measurement": "EC50", "setting": "SK-MEL-2", "result": 0.82, "unit": "µg/mL"}, {"measurement": "EC50", "setting": "XF498", "result": 0.52, "unit": "µg/mL"}, {"measurement": "EC50", "setting": "HCT-15", "result": 7.2, "unit": "µg/mL"}, {"measurement": "EC50", "setting": "A549", "result": 3.65, "unit": "µg/mL"}, {"measurement": "EC50", "setting": "SK-OV-3", "result": 2.8, "unit": "µg/mL"}]}
{"compound": "CC(/C=C/[C@@H](C)[C@H]1C[C@@H](O)[C@H]2[C@@H]3C[C@H](O)[C@H]4[C@@H](O)[C@@H](O)CC[C@]4(C)[C@H]3CC[C@@]21C)CO", "note": "(stereo not given in full) [CERTONARDOSTEROL B3]", "values": [{"measurement": "EC50", "setting": "SK-MEL-2", "result": 7.13, "unit": "µg/mL"}, {"measurement": "EC50", "setting": "XF498", "result": 14.7, "unit": "µg/mL"}, {"measurement": "EC50", "setting": "HCT-15", "result": 10.4, "unit": "µg/mL"}, {"measurement": "EC50", "setting": "A549", "result": 12.5, "unit": "µg/mL"}, {"measurement": "EC50", "setting": "SK-OV-3", "result": 12.1, "unit": "µg/mL"}]}
{"compound": "CC(C)[C@](O)(CO)CC[C@@H](C)[C@H]1C[C@@H](O)[C@H]2[C@@H]3C[C@H](O)[C@H]4[C@@H](O)[C@@H](O)CC[C@]4(C)[C@H]3CC[C@@]21C", "note": "[CERTONARDOSTEROL B4]", "values": [{"measurement": "EC50", "setting": "SK-MEL-2", "result": 7.5, "unit": "µg/mL"}, {"measurement": "EC50", "setting": "XF498", "result": "> 30", "unit": "µg/mL"}, {"measurement": "EC50", "setting": "HCT-15", "result": "> 30", "unit": "µg/mL"}, {"measurement": "EC50", "setting": "A549", "result": "> 30", "unit": "µg/mL"}, {"measurement": "EC50", "setting": "SK-OV-3", "result": 36.6, "unit": "µg/mL"}]}
